Data: PubChem BioAssay (NCI)
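Each compound was tested at five concentrations against cells in 96-well plates for 48 hours. GI50 marks 50% less growth. At the TGI there is no net growth.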

Experiments:
Assay in all cases: DTP human tumour cell line panel, 48 h
BT-549 breast = tested on: BT-549 breast
HOP-62 NSCLC = tested on: HOP-62 NSCLC
MALME-3M melanoma = tested on: MALME-3M melanoma
OVCAR-8 ovarian = tested on: OVCAR-8 ovarian
SF-539 CNS = tested on: SF-539 CNS
TK-10 renal = tested on: TK-10 renal
U251 CNS = tested on: U251 CNS
HS 578T breast = tested on: HS 578T breast

Row | SMILES | GI50 (BT-549 breast) [µM] | TGI (BT-549 breast) [µM] | GI50 (HOP-62 NSCLC) [µM] | TGI (HOP-62 NSCLC) [µM] | GI50 (MALME-3M melanoma) [µM] | TGI (MALME-3M melanoma) [µM] | GI50 (OVCAR-8 ovarian) [µM] | TGI (OVCAR-8 ovarian) [µM] | GI50 (SF-539 CNS) [µM] | TGI (SF-539 CNS) [µM] | GI50 (TK-10 renal) [µM] | TGI (TK-10 renal) [µM] | GI50 (U251 CNS) [µM] | TGI (U251 CNS) [µM] | GI50 (HS 578T breast) [µM] | TGI (HS 578T breast) [µM]
1 | COc1ccc(SC2c3cc(OC)c(OC)cc3Oc3nc(N)c(C#N)c(N)c32)cc1 (stereo unspecified) | 1.02 | 2.19 | 1.7 | 3.09 | 1.46 | 2.89 | 1.69 | 3.18 | 1.38 | 2.68 | 1.63 | 3.01 | 0.954 | 2.18 | – | –
2 | CC(=O)Oc1ccc(OC(C)=O)c2ccccc12 | 13.5 | 26.6 | 12.6 | 25.3 | 14 | 33 | 6.66 | 22.7 | 13.2 | 26.4 | 17.2 | 31.5 | 13.8 | 27.2 | 13.2 | 67.1
3 | CCN(CC)CCN1C(=O)c2c(c(C)c3c(oc4cc(O)ccc43)c2C)C1=O | 1.67 | 3.19 | 2.06 | 4.84 | 1.56 | 2.97 | 2.11 | 5.72 | 1.68 | 3.05 | 1.93 | 3.62 | – | – | – | –
4 | CC1(C)CCC[C@]23C(=O)O[C@](O)(C(=O)C4=C[C@@](C)(/C=C/CCCc5ccc6ccc7cccc8ccc5c6c78)CC[C@@]42O)[C@@H]13 | 0.141 | 0.282 | 0.215 | 0.563 | 0.177 | 0.332 | 0.25 | 1.15 | 0.17 | 0.322 | 0.196 | 0.423 | 0.17 | 0.344 | 0.251 | 0.812
5 | Cc1ccc2c(c1)C(=O)c1c-2n(CCCN)c(=O)c2cc([N+](=O)[O-])ccc12 | 0.746 | 1.57 | 0.0389 | 0.428 | 0.752 | 1.71 | 0.387 | 1.33 | 0.732 | 1.44 | 0.567 | 1.24 | 0.124 | 0.832 | 1.54 | 3.44
6 | COc1ccc(/C=C/c2c(C(=O)/C=C/c3ccc(Cl)cc3)c(C)nc3ccccc23)cc1 | 1.83 | 3.8 | 2.12 | 4.83 | 1.69 | 3.21 | 2.43 | 9.13 | 1.78 | 3.27 | 2.87 | 4.95 | 1.75 | 3.55 | – | –
7 | Nc1[nH]c(=O)ncc1F | – | > 100 | – | > 100 | – | > 100 | – | > 100 | – | > 100 | – | > 100 | – | > 100 | – | > 100
8 | CN(C)CCCNc1nn2c(=O)c3ccccc3nc2c2ccccc12 | 10.9 | 45.7 | 8.26 | 21.5 | 11.8 | 29.8 | 7.08 | 40.7 | 3.95 | 15.4 | 11.1 | 45.4 | 10.8 | 26.5 | 3.67 | 19.9
9 | COc1ccccc1/C=C\c1cnnc2ccccc12 | – | > 10 | – | > 10 | – | > 10 | – | > 10 | – | > 10 | – | > 10 | – | > 10 | – | > 10
10 | Cn1c2ccccc2c(=Nc2ccccc2)c2c3ccccc3[nH]c21 | 3.15 | 7.13 | 1.14 | 2.42 | 0.345 | 1.8 | 1.85 | 10.2 | 1.17 | 2.46 | 1.03 | 2.2 | 1.15 | 2.45 | 1.46 | 4.58
11 | O=P(Oc1ccc(Cl)cc1)(Oc1ccc(Cl)cc1)N1CC1 | – | > 10 | – | > 10 | – | > 10 | – | > 10 | – | > 10 | – | > 10 | – | > 10 | – | > 10
12 | O=C1NC(=O)/C(=C/C=C/c2ccccc2)S1 | 2.34 | 58.1 | 1.37 | 33.1 | 12.3 | > 82.4 | 3.48 | > 100 | 0.384 | 3.16 | 28.6 | > 100 | 0.693 | 18.1 | 13.4 | > 100
13 | Oc1ccc2oc3ncc(Cl)c(-c4ccccc4)c3c2c1 | – | – | – | – | > 100 | > 100 | > 100 | > 100 | > 100 | > 100 | > 100 | > 100 | > 100 | > 100 | > 100 | > 100
14 | O=C(O)c1c(O)c2cc(Br)ccc2oc1=O | – | > 100 | – | > 100 | – | > 100 | – | > 100 | – | > 100 | – | > 100 | – | > 100 | – | > 100
15 | COC(=O)/C=C/C(=O)C1C(C(=O)OC)C2(C(=O)OC)CCC1(C(=O)OC)N2 (stereo unspecified) | – | – | – | > 100 | – | > 100 | – | > 100 | – | > 100 | – | > 100 | – | > 100 | – | –
16 | S=c1nc(-c2ccccc2)oc(=NC2CCCCC2)n1C1CCCCC1 | – | – | 5.9 | 23.1 | – | – | 3.22 | 18.5 | 5.73 | 20.4 | 4.31 | 8.57 | 3.85 | 15.2 | 3.3 | 14.5
17 | O=c1[nH]cc(CS(=O)(=O)Cc2c[nH]c(=O)[nH]c2=O)c(=O)[nH]1 | – | > 100 | – | – | – | > 100 | – | > 100 | – | > 100 | – | > 100 | – | > 100 | – | > 100
18 | O=C(c1ccccc1)C1C(C(=O)c2ccccc2)N1Cc1ccccc1 (stereo unspecified) | – | 72 | – | > 100 | – | 77.3 | – | > 100 | – | – | – | > 100 | – | > 100 | – | > 100
19 | C=C(CN1CCN(c2ccccc2OC)CC1)c1ccc(C(=O)Nc2ccccc2N)cc1 | 7.12 | 26.9 | 3.27 | > 50 | – | – | 9.28 | 32.4 | 2.18 | 23.7 | 1.2 | 9.07 | 1.7 | 11.1 | 3.58 | > 50
